Laboratory results as given in ChEMBL document CHEMBL1129640, “Assessment of structural requirements for the monoamine oxidase-B-catalyzed oxidation of 1,4-disubstituted-1,2,3,6-tetrahydropyridine derivatives related to the neurotoxin 1-methyl-4-phenyl-1,2,3,6-tetrahydropyridine” (J Med Chem, 1996).

Experiments:
[1] = molecular target: T1, Amine oxidase [flavin-containing] B (Bos taurus, UniProt P56560); experiment: Ratio of Kcat and KM against monoamine oxidase B (MAO-B) from beef liver was calculated; conditions: cattle
T1 sequence (P56560 whole entry): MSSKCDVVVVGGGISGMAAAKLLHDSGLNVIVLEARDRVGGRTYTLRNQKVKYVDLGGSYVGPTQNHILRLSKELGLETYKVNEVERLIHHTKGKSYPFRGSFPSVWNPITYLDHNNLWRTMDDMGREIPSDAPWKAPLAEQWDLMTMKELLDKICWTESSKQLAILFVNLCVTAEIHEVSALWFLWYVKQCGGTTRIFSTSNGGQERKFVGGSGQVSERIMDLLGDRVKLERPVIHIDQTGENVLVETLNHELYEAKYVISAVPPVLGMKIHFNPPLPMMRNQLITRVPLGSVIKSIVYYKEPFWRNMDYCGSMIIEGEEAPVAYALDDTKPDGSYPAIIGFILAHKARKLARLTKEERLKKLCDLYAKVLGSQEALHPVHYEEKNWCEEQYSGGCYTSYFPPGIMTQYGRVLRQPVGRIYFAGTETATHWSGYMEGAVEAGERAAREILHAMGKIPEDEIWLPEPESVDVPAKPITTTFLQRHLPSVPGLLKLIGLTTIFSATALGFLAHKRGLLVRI

[2] = molecular target: T1, Amine oxidase [flavin-containing] B; experiment: Catalytic constant was measured against monoamine oxidase B (MAO-B) from beef liver; conditions: cattle

Ratio [1]	Structure (SMILES)	k cat [2] [s⁻¹]
1130	CN1CC=C(CCc2ccccc2)CC1	–
433	CCOC(=O)C1=CCN(C)CC1	–
413	Cn1cccc1C1=CC=[N+](C2CC2)CC1	–
–	CN1CC=C(c2ccccc2)CC1	3.4
136	Clc1ccc(OC2=CC=[N+](C3CC3)CC2)cc1	–
57	CN1CC=C(OC(=O)N(C)C)CC1	–
1650	C1=C(Oc2ccccc2)CC[N+](C2CC2)=C1	–
1538	C1=C(Cc2ccccc2)CC[N+](C2CC2)=C1	–
4151	CN1CC=C(Oc2ccccc2)CC1	–
347	CN1CC=C(Cn2cccc2)CC1	–
974	CN1CC=C(C2CC2)CC1	–
630	Cc1ccccc1C1=CC=[N+](C2CC2)CC1	–
1900	C1=C(Oc2cccs2)CC[N+](C2CC2)=C1	–
2370	C=CC1=CCN(C)CC1	–
67	CN1CC=C(OC(=O)N(C)c2ccccc2)CC1	–
912	CN1CC=C(/C=C\c2ccccc2)CC1	–
790	C#CC1=CCN(C)CC1	–
3580	CN1CC=C(Cc2ccccc2)CC1	–
150	O=C([O-])C(=O)O.O=[N+]([O-])c1ccc(OC2=CC=[N+](C3CC3)CC2)cc1	–
92	CN1CC=C(C(C)(C)C)CC1	–

Structure (SMILES)	Ratio [1]	k cat [2] [s⁻¹]
CN1CC=C(C2CCCCC2)CC1	688	–
C1=C(c2ccccc2)CCNC1	319	–
Clc1ccc(C2=CCNCC2)cc1	382	–
CN1CC=C(c2ccc(N)cc2)CC1	54	–
C[C@@H]1NC(=O)[C@H](NC(=O)[C@@H](N)Cc2ccc(O)cc2)C(C)(C)SSC(C)(C)[C@@H](C(O)O)NC(=O)[C@H](Cc2ccccc2)NC1=O	19	–
CN1CC=C(c2ccc([N+](=O)[O-])cc2)CC1	16	–
CCCN1CC=C(c2ccccc2)CC1	4	–
CN1CC=C(c2cccs2)CC1	55	–
